Row | Structure (SMILES) | melting point
1 | CCCCCCCCCCCCCC(=O)Oc1cccc2[nH]cc(CCN(C)C)c12 | 58 to 59 °C
2 | CCCCCCCC(=O)Oc1cccc2[nH]cc(CCN(C)C)c12 | 69 to 70 °C
